Results published in ChEMBL document CHEMBL5352433, “Design, synthesis, and biological evaluation of low-toxic lappaconitine derivatives as potential analgesics” (Eur J Med Chem, 2022).

These compounds were tested on Mus musculus (assay: Analgesic activity against acetic acid-induced Kunming writhing mouse model assessed as inhibition of writhing at 10 mg/kg, sc pretreated with compound for 15 mins followed by acetic acid addition and measured after 15 mins relative to control). Conditions: 0.5 h, time 30 min.
Assay type: functional
Work on `CCN1C[C@]2(OC(=O)c3ccccc3NC(=O)c3ccc(Br)cc3)CC[C@H](OC)[C@]34C1[C@H](C[C@H]23)[C@@]1(O)C[C@H](OC)[C@H]2C[C@@H]4[C@]1(O)[C@H]2OC` yielded an inhibition in vivo at 10 mg/kg of 39.4%.
Compound `CCN1C[C@]2(OC(=O)c3ccccc3NC(=O)c3cnc(Cl)cn3)CC[C@H](OC)[C@]34C1[C@H](C[C@H]23)[C@@]1(O)C[C@H](OC)[C@H]2C[C@@H]4[C@]1(O)[C@H]2OC` has an inhibition in vivo at 10 mg/kg of 31.5%.
In the case of `CCN1C[C@]2(OC(=O)c3ccccc3NC(=O)C3CCCC3)CC[C@H](OC)[C@]34C1[C@H](C[C@H]23)[C@@]1(O)C[C@H](OC)[C@H]2C[C@@H]4[C@]1(O)[C@H]2OC`, the inhibition in vivo at 10 mg/kg is reported as 56.9%.
For `CCN1C[C@]2(OC(=O)c3ccccc3NC(=O)c3ccccc3)CC[C@H](OC)[C@]34C1[C@H](C[C@H]23)[C@@]1(O)C[C@H](OC)[C@H]2C[C@@H]4[C@]1(O)[C@H]2OC`, the inhibition in vivo at 10 mg/kg was 0%.
Compound `CCCCCCC(=O)Nc1ccccc1C(=O)O[C@@]12CC[C@H](OC)[C@]34C([C@H](C[C@H]13)[C@@]1(O)C[C@H](OC)[C@H]3C[C@@H]4[C@]1(O)[C@H]3OC)N(CC)C2` has an inhibition in vivo at 10 mg/kg of 54.2%.
Compound `CCN1C[C@]2(OC(=O)c3ccccc3NC(=O)c3ccc(Br)s3)CC[C@H](OC)[C@]34C1[C@H](C[C@H]23)[C@@]1(O)C[C@H](OC)[C@H]2C[C@@H]4[C@]1(O)[C@H]2OC` has an inhibition in vivo at 10 mg/kg of 12.8%.
With `CCN1C[C@]2(OC(=O)c3ccccc3NC(=O)c3ccc(Cl)cc3)CC[C@H](OC)[C@]34C1[C@H](C[C@H]23)[C@@]1(O)C[C@H](OC)[C@H]2C[C@@H]4[C@]1(O)[C@H]2OC` the inhibition in vivo at 10 mg/kg was 31.6%.
Compound `CCN1C[C@]2(OC(=O)c3ccccc3NC(=O)C3CCCO3)CC[C@H](OC)[C@]34C1[C@H](C[C@H]23)[C@@]1(O)C[C@H](OC)[C@H]2C[C@@H]4[C@]1(O)[C@H]2OC` (stereo partly specified) has an inhibition in vivo at 10 mg/kg of 21.8%.
With `CCN1C[C@]2(OC(=O)c3ccccc3NC(=O)c3ccc([N+](=O)[O-])cc3)CC[C@H](OC)[C@]34C1[C@H](C[C@H]23)[C@@]1(O)C[C@H](OC)[C@H]2C[C@@H]4[C@]1(O)[C@H]2OC` the inhibition in vivo at 10 mg/kg was 27.2%.
`CCN1C[C@]2(OC(=O)c3ccccc3NC(=O)C3CCCCC3)CC[C@H](OC)[C@]34C1[C@H](C[C@H]23)[C@@]1(O)C[C@H](OC)[C@H]2C[C@@H]4[C@]1(O)[C@H]2OC` was tested, and the inhibition in vivo at 10 mg/kg was 34.5%.
`CCN1C[C@]2(OC(=O)c3ccccc3NC(=O)c3ccc(C#N)cc3)CC[C@H](OC)[C@]34C1[C@H](C[C@H]23)[C@@]1(O)C[C@H](OC)[C@H]2C[C@@H]4[C@]1(O)[C@H]2OC` showed an inhibition in vivo at 10 mg/kg of 31.5%.
`CCN1C[C@]2(OC(=O)c3ccccc3NC(=O)c3ccc(Cl)s3)CC[C@H](OC)[C@]34C1[C@H](C[C@H]23)[C@@]1(O)C[C@H](OC)[C@H]2C[C@@H]4[C@]1(O)[C@H]2OC` gave an inhibition in vivo at 10 mg/kg of 27.8%.
`CCN1C[C@]2(OC(=O)c3ccccc3NC(=O)C3CCOC3)CC[C@H](OC)[C@]34C1[C@H](C[C@H]23)[C@@]1(O)C[C@H](OC)[C@H]2C[C@@H]4[C@]1(O)[C@H]2OC` (stereo partly specified) showed an inhibition in vivo at 10 mg/kg of 34%.
Work on `CCN1C[C@]2(OC(=O)c3ccccc3NC(=O)c3ccc(S(C)(=O)=O)cc3)CC[C@H](OC)[C@]34C1[C@H](C[C@H]23)[C@@]1(O)C[C@H](OC)[C@H]2C[C@@H]4[C@]1(O)[C@H]2OC` yielded an inhibition in vivo at 10 mg/kg of 8.4%.
With `CCN1C[C@]2(OC(=O)c3ccccc3NC(=O)c3ccc(C(=O)OC)cc3)CC[C@H](OC)[C@]34C1[C@H](C[C@H]23)[C@@]1(O)C[C@H](OC)[C@H]2C[C@@H]4[C@]1(O)[C@H]2OC` the inhibition in vivo at 10 mg/kg was 36.4%.
`CCN1C[C@]2(OC(=O)c3ccccc3NC(=O)c3ccc(I)cc3)CC[C@H](OC)[C@]34C1[C@H](C[C@H]23)[C@@]1(O)C[C@H](OC)[C@H]2C[C@@H]4[C@]1(O)[C@H]2OC` gave an inhibition in vivo at 10 mg/kg of 31.1%.
